In the NIST ThermoML archive (doi:10.1016/j.jct.2015.09.020):
Numbers after ± are expanded uncertainties.

Assay: mn = molality of the nth substance listed, in mol/kg
Conditions: 101.3 kPa, Liquid

N[C@@H](CCC(=O)[O-])C(=O)O.[Na+] [sodium (S)-2-amino-4-carboxybutanoate] + O
speed of sound [m/s]
Conditions	278.15 K	288.15 K	298.15 K
Frequency=2 MHz, Linear variable-path acoustic interferometer, m1 = 0.0467	1433.6 ± 1.7	–	–
Frequency=2 MHz, Linear variable-path acoustic interferometer, m1 = 0.0724	1437.7 ± 1.7	–	–
Frequency=2 MHz, Linear variable-path acoustic interferometer, m1 = 0.091	1441 ± 1.7	–	–
Frequency=2 MHz, Linear variable-path acoustic interferometer, m1 = 0.1095	1442.8 ± 1.7	–	–
Frequency=2 MHz, Linear variable-path acoustic interferometer, m1 = 0.1355	1446.8 ± 1.8	–	–
Frequency=2 MHz, Linear variable-path acoustic interferometer, m1 = 0.163	1451.4 ± 1.8	–	–
Frequency=2 MHz, Linear variable-path acoustic interferometer, m1 = 0.1906	1455.3 ± 1.8	–	–
Frequency=2 MHz, Linear variable-path acoustic interferometer, m1 = 0.2075	1458.8 ± 1.9	–	–
Frequency=2 MHz, Linear variable-path acoustic interferometer, m1 = 0.2251	1461.7 ± 1.8	–	–
Frequency=2 MHz, Linear variable-path acoustic interferometer, m1 = 0.2436	1464 ± 1.9	–	–
Frequency=2 MHz, Linear variable-path acoustic interferometer, m1 = 0.2705	1468.1 ± 2	–	–
Frequency=2 MHz, Linear variable-path acoustic interferometer, m1 = 0.2895	1471.7 ± 2	–	–
Frequency=2 MHz, Linear variable-path acoustic interferometer, m1 = 0.302	1473.6 ± 2	–	–
Frequency=3 MHz, Sing-around technique in a fixed-path interferometer, m1 = 0.0469	–	1472.9 ± 1.2	1502.5 ± 1.2
Frequency=3 MHz, Sing-around technique in a fixed-path interferometer, m1 = 0.072	–	1476.6 ± 1.2	1505.8 ± 1.2
Frequency=3 MHz, Sing-around technique in a fixed-path interferometer, m1 = 0.0904	–	1478.9 ± 1.2	1508.2 ± 1.2
Frequency=3 MHz, Sing-around technique in a fixed-path interferometer, m1 = 0.1082	–	1481.3 ± 1.3	1510.5 ± 1.3
Frequency=3 MHz, Sing-around technique in a fixed-path interferometer, m1 = 0.1368	–	1485.6 ± 1.3	1514.4 ± 1.3
Frequency=3 MHz, Sing-around technique in a fixed-path interferometer, m1 = 0.1628	–	1489.3 ± 1.3	1517.9 ± 1.3
Frequency=3 MHz, Sing-around technique in a fixed-path interferometer, m1 = 0.19	–	1492.9 ± 1.3	1521.3 ± 1.3
Frequency=3 MHz, Sing-around technique in a fixed-path interferometer, m1 = 0.2089	–	1495.3 ± 1.3	1523.6 ± 1.3
Frequency=3 MHz, Sing-around technique in a fixed-path interferometer, m1 = 0.2289	–	1497.5 ± 1.4	1525.8 ± 1.3
Frequency=3 MHz, Sing-around technique in a fixed-path interferometer, m1 = 0.2441	–	1499.7 ± 1.5	1527.8 ± 1.4
Frequency=3 MHz, Sing-around technique in a fixed-path interferometer, m1 = 0.264	–	1503.2 ± 1.5	1531.1 ± 1.4
Frequency=3 MHz, Sing-around technique in a fixed-path interferometer, m1 = 0.2916	–	1506.7 ± 1.4	1533.9 ± 1.4
Frequency=3 MHz, Sing-around technique in a fixed-path interferometer, m1 = 0.316	–	1509 ± 1.4	1537 ± 1.5

mass density [kg/m3]
Conditions	278.15 K	288.15 K	298.15 K
Pycnometric method, m1 = 0.0467	1004.22 ± 0.29	–	–
Pycnometric method, m1 = 0.0724	1006.57 ± 0.31	–	–
Pycnometric method, m1 = 0.091	1008.26 ± 0.32	–	–
Pycnometric method, m1 = 0.1095	1009.79 ± 0.35	–	–
Pycnometric method, m1 = 0.1355	1012.41 ± 0.38	–	–
Pycnometric method, m1 = 0.163	1014.89 ± 0.41	–	–
Pycnometric method, m1 = 0.1906	1017.32 ± 0.44	–	–
Pycnometric method, m1 = 0.2075	1018.82 ± 0.46	–	–
Pycnometric method, m1 = 0.2251	1020.29 ± 0.5	–	–
Pycnometric method, m1 = 0.2436	1022.15 ± 0.5	–	–
Pycnometric method, m1 = 0.2705	1024.19 ± 0.55	–	–
Pycnometric method, m1 = 0.2895	1026.12 ± 0.66	–	–
Pycnometric method, m1 = 0.302	1027.42 ± 0.69	–	–
Vibrating tube method, m1 = 0.0469	–	1003.34 ± 0.14	1001.22 ± 0.14
Vibrating tube method, m1 = 0.072	–	1005.66 ± 0.17	1003.48 ± 0.17
Vibrating tube method, m1 = 0.0904	–	1007.29 ± 0.19	1005.08 ± 0.19
Vibrating tube method, m1 = 0.1082	–	1008.87 ± 0.22	1006.62 ± 0.21
Vibrating tube method, m1 = 0.1368	–	1011.34 ± 0.26	1009.04 ± 0.26
Vibrating tube method, m1 = 0.1628	–	1013.63 ± 0.31	1011.28 ± 0.3
Vibrating tube method, m1 = 0.19	–	1016.04 ± 0.35	1013.63 ± 0.34
Vibrating tube method, m1 = 0.2089	–	1017.65 ± 0.37	1015.21 ± 0.36
Vibrating tube method, m1 = 0.2289	–	1019.31 ± 0.4	1016.84 ± 0.39
Vibrating tube method, m1 = 0.2441	–	1020.63 ± 0.43	1018.13 ± 0.42
Vibrating tube method, m1 = 0.264	–	1022.32 ± 0.46	1019.79 ± 0.46
Vibrating tube method, m1 = 0.2916	–	1024.67 ± 0.5	1022.11 ± 0.49
Vibrating tube method, m1 = 0.316	–	1026.69 ± 0.53	1024.08 ± 0.52
